This data set relates to horses. The data set is described as follows: Alfaxalone/HPCD anesthesia in the horse. On the procedure:
In the first stage, two horses were anesthetized after heavy premedication with xylazine (0.6 mg/kg). […] Heart rate, respiratory rate, blood pressure, ECG and ventilation were monitored throughout the anesthesia period.
The same parameters as in the first stage were monitored.
Cardiopulmonary parameters were monitored as before.
To provide some comparison in the above stages, the two horses were anesthetized with thiamylal sodium (8 mg/kg) after the same premedication as before and a similar monitoring regime followed.
A third horse was obtained and the same regimen was followed as in the third stage, but three "top-ups" of one-third induction dose were administered at 10 minute intervals. Similar monitoring as above was continued.
Blood pressure was measured from an acutely placed antraarterial catheter and read through a transducer/digital readout system which included an ECG tracing oscilloscope.

SMILES strings stand for the structures.

As to `CC(=O)[C@H]1CC[C@H]2[C@@H]3CC[C@H]4C[C@H](O)CC[C@]4(C)[C@H]3C(=O)C[C@]12C` (stereo in doubt) [alfaxalone, 3α-hydroxy-5α-pregnane-11,20-dione], under “alfaxalone alone recoveries”, the “recoveries classified as excellent” value is “Four of the five”.

Take `C=CCC1(C(C)CCC)C(=O)N=C(S)NC1=O` (stereo not drawn) [thiamylal, thiamylal sodium]: the blood pressure effect entry (after xylazine premedication) is recorded as “the same effect”.

For `Cc1cccc(C)c1N=C1NCCCS1` [xylazine], where the note is “0.6 mg/kg i.v.”, the sedation entry is given as “good sedation without ataxia”.

Source of the values: patent EP0399716A1, “Hypoallergenic steroidal anesthetic/hypnotic compositions” (INNOVET, INC., priority 1989, dated 1990).
